The results in this text go back to patent publication US9951060B2, “2-acylaminothiazole derivative or salt thereof” (ASTELLAS PHARMA INC., priority 2014, dated 2018).

Data set [1] concerns the target T1, human c-Mpl-introduced Ba/F3 cell (Homo sapiens, UniProt P40238).
T1 construct: expressed in transfected cells
T1 sequence (P40238 26-635): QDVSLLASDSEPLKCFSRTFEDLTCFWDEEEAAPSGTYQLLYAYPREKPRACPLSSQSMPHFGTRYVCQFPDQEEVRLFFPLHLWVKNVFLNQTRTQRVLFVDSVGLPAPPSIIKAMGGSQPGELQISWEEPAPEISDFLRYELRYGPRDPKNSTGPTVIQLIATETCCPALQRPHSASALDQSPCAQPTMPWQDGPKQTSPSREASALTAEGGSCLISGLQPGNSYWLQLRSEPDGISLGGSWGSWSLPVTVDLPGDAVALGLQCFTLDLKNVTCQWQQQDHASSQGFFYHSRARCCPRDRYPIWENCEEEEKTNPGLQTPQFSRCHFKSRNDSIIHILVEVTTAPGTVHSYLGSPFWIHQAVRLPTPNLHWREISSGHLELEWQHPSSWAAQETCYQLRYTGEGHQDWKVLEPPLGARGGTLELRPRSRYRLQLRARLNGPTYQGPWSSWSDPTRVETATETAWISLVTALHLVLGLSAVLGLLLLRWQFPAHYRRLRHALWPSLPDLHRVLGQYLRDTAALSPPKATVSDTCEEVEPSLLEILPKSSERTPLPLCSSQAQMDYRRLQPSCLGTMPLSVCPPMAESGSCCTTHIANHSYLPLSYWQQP
Description: Test Example 2: human c-Mpl-introduced Ba/F3 cell proliferative activity. It is filed as cell-based. To be noted: concentration exhibiting 30% proliferation; 100% = positive control (Example 315 of Patent Document 1) at 1 μM. The method, then:
Test Example 2: Evaluation of Human c-Mpl-Introduced Ba/F3 Cell Proliferative Activity
The human c-Mpl-introduced Ba/F3 cell proliferation action was measured by the following method.
As a positive control, 1-(5-{[4-(4-chlorothiophen-2-yl)-5-{[(2R)-2-methylpyrrolidin-1-yl]methyl}-1,3-thiazol-2-yl]carbamoyl}-3-fluoropyridin-2-yl)piperidine-4-carboxylic acid hydrochloride disclosed as Example 315 in Patent Document 1, represented by the formula (A1) above, was used. Further, it is known that the compound has a good human c-Mpl-introduced Ba/F3 cell proliferative activity as disclosed in Table 1 in Patent Document 1.
a) Construction of Vector Expressing Human c-Mpl Receptor
A human c-Mpl receptor gene (GenBank Accession No.: M90102.1) was transfected into an expression vector pEF-BOS (Nucleic Acids Research, 18: pp 5322 (1990)).
b) Construction of Cell Stably Expressing Human c-Mpl Receptor
A vector expressing a human c-Mpl receptor was introduced into a Ba/F3 cell (RIKEN BRC: RCB0805). For the introduction, an electroporation method was used. pEF-BOS-c-mpl (10 μg), pSV2bsr (1 μg, Kaken Pharmaceutical Co., Ltd.) and 1×10^7 of Ba/F3 cells were put into cuvettes with a gap width of 0.4 cm and electroporated under a condition of 1.5 kV (25 μF) in a Gene Pulser (registered trademark) (BioRad). The cells were incubated in an RPMI-1640 medium supplemented with a 0.5% WEHI conditioned medium (BD Biosciences) and 10% fetal bovine serum for 3 days, and thereafter, and the cells were incubated for 30 days in an RPMI-1640 medium, to which 10 μg/mL blasticidin had been further added, thereby acquiring a drug-resistant clone.
c) Measurement of Cell Proliferative Activity
The cells obtained in b) above were dispensed into an RPMI-1640 medium supplemented with a 0.5% WEHI conditioned medium and 10% fetal bovine serum, and used. The day before the experiment, the test substances (final concentration of 100 nM to 10 μM) which had been dissolved in a medium for assay (an RPMI-1640 medium supplemented with 10% fetal bovine serum) were added to a 384-well plate (Model No. 781185, Greiner bio-one). The cells after the medium had been replaced with the medium for assay were dispensed to a 384-well plate to which the test substance had been added, to 1×10^4 cells/well, and incubated overnight at 37° C. and 5% CO2. On the experiment day, a solution of a Cell counting kit (Dojindo Laboratories) was added to each well of the 384-well plate, and the cells were incubated for about 5 hours at 37° C. and 5% CO2. Thereafter, the absorbance (an absorbance wavelength of 450 nm) of each well was measured using Safire^2 (registered trademark) (TECAN), and used as an index for the number of cells. Further, as a negative control, a well to which the test substances had not been added was prepared.
By taking the absorbance of the well to which the test substance had been not added as 0% and taking the absorbance in a case where the positive control had been added to a final concentration of 1 μM as 100%, a cell proliferation rate (%) was calculated from the absorbance of the well to which the test substance had been added.

Data set [2] has as its target human muscarinic M3 receptor (Homo sapiens, UniProt P20309).
Description: Test Example 1: Evaluation of Muscarinic M3 Receptor Positive Allosteric Modulator Activity
a) Construction of Vector Expressing Human Muscarinic M3 Receptor
A human muscarinic M3 receptor gene (GenBank Accession No.: NM_000740.2) was introduced into an expression vector pcDNA3.1™ (Life Technologies).
b) Construction of Cells Stably Expressing Human Muscarinic M3 Receptor
A vector expressing a human muscarinic M3 receptor was introduced into a CHO—K1 cell (ATCC No.: CCL-61). The introduction was carried out according to the attached instructions, using a transfection reagent, Lipofectoamine (registered trademark) 2000 Reagent (Life Technologies). The cells were incubated in an alpha Modified Eagle Minimum Essential Medium (α-MEM) including 2 mM glutamine, 10% fetal bovine serum, and 2.0 mg/mL Geneticin (registered trademark) (Life Technologies) for 4 weeks to acquire a drug-resistant clone.
c) Measurement of Intracellular Ca^2+ Concentration
The cells obtained in b) above were suspended in an α-MEM including 2 mM glutamine, 10% fetal bovine serum, and 0.2 mg/mL Geneticin (registered trademark) to the amount from 1.2 to 1.5×10^4 cells/well the day before the experiment, dispensed into a 384-well plate (Model No. 355962, BD Biosciences), and incubated overnight at 37° C. and 5% CO2. The medium was replaced with a loading buffer (an assay buffer (Hank's balanced salt solution (HBSS), 1 g/L BSA, 20 mM HEPES (pH 7.5), and 2.5 mM probenecid), including 3.1 μM Fluo 4-AM (Dojindo Laboratories) and incubated for about 2 hours at room temperature. Thereafter, the cells were washed with a plate washer ELx405™ (BIO-TEK Instrument, Inc.) set with the assay buffer, and set in an intracellular Ca^2+ concentration measuring system (FLIPR^tetra (registered trademark), Molecular Device Co.). The test substances (final concentration of 1 μM or 10 μM) and carbachol (Sigma, final concentration of 0.0024 nM to 10 μM) which had each been dissolved in the assay buffer in advance were set in a FLIPR^tetra (registered trademark). The test substances were added to the cells in the device and after about 5 minutes, carbachol was added to the cells. An increase rate of the intracellular Ca^2+ concentration by carbachol was measured (excitement wavelength of 470 nm to 495 nm and a fluorescence wavelength of 515 nm to 575 nm).
For the muscarinic M3 receptor-positive allosteric modulator activity, a shift toward a lower concentration side of a carbachol concentration-response curve by the test substance was used as an index. […] For example, when the EC50 value of carbachol in the absence of the test substance was 0.1 μM and the EC50 value of carbachol in the presence of the test substance was 0.01 μM, the value of the muscarinic M3 receptor-positive allosteric modulator activity becomes 10, showing that the test substance causes a 10-fold shift in the EC50 value toward to the low concentration side.

Bounds are passed on as bounds.

Sequence of human muscarinic M3 receptor (P20309 whole entry): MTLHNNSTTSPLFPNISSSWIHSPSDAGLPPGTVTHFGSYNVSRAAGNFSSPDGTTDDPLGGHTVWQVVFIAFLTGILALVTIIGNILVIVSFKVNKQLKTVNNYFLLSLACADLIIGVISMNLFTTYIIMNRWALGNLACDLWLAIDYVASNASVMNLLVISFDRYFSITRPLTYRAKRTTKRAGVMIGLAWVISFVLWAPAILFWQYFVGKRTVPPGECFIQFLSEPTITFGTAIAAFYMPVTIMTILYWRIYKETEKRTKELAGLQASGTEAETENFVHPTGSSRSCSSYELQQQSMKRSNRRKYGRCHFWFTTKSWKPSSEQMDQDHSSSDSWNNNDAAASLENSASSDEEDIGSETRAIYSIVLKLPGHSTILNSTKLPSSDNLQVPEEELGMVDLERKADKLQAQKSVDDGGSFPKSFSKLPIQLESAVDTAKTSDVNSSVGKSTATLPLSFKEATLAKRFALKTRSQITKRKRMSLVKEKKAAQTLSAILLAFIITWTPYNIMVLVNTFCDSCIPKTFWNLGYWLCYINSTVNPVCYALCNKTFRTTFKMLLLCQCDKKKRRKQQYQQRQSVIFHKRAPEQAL

Consider `CC(C(=O)O)N1CCN(c2cnc(C(=O)Nc3nc(-c4cc(Cl)cc(C(F)(F)F)c4)c(CN4CCC[C@H]4C)s3)cn2)CC1` (stereo partly drawn) [Example 12], for which, in data set [1], the “human c-Mpl-introduced Ba/F3 cell proliferative activity EC30” value was >10 µM. Further, in data set [2], the “muscarinic M3 receptor-positive allosteric modulator activity, 1 μM (-fold shift)” value is given as 33 -fold shift and the “muscarinic M3 receptor-positive allosteric modulator activity, 10 μM (-fold shift)” value is given as 178 -fold shift.
On the same counts, the results for `C[C@@H]1CCCN1Cc1sc(NC(=O)c2cnc(N3CCN(CCC(=O)O)C[C@@H]3C)cn2)nc1-c1cc(F)cc(C(F)(F)F)c1` [Example 17] are >10 µM, 15 -fold shift and 109 -fold shift.
The corresponding values for `C[C@@H]1CCCN1Cc1sc(NC(=O)c2cnc(N3CCN(CCC(=O)O)CC3)cn2)nc1-c1cc(Br)cc(C(F)(F)F)c1` [Example 27] are >10 µM, 31 -fold shift and 330 -fold shift.
Regarding `COc1ncc(-c2nc(NC(=O)c3cnc(N4CCN(CCC(=O)O)CC4)cn3)sc2CN2CCC[C@H]2C)cc1C(F)(F)F` [Example 33], in data set [1], the “human c-Mpl-introduced Ba/F3 cell proliferative activity EC30” value was >10 µM. In data set [2], the “muscarinic M3 receptor-positive allosteric modulator activity, 1 μM (-fold shift)” value is given as 40 -fold shift and the “muscarinic M3 receptor-positive allosteric modulator activity, 10 μM (-fold shift)” value is reported as 182 -fold shift.
The corresponding values for `CC[C@@H]1CCCN1Cc1sc(NC(=O)c2cnc(N3CCN(CC(=O)O)CC3)cn2)nc1-c1ccc(OC)c(C(F)(F)F)c1` [Example 41] are >10 µM, 43 -fold shift and 160 -fold shift.
On the same counts, the results for `CCOc1ccc(-c2nc(NC(=O)c3cnc(N4CCN(CCC(=O)O)CC4)cn3)sc2CN2CCC[C@H]2C)cc1C(F)(F)F` [Example 54] are >10 µM, 36 -fold shift and 134 -fold shift.
As to `CC[C@@H]1CCCN1Cc1sc(NC(=O)c2cnc(N3CCN(CC(=O)O)CC3)cn2)nc1-c1cc(F)cc(C(F)(F)F)c1` [Example 62], the “human c-Mpl-introduced Ba/F3 cell proliferative activity EC30” value in data set [1] is >10 µM. In addition, in data set [2], the “muscarinic M3 receptor-positive allosteric modulator activity, 1 μM (-fold shift)” value was 37 -fold shift and the “muscarinic M3 receptor-positive allosteric modulator activity, 10 μM (-fold shift)” value was 195 -fold shift.
The corresponding values for `C[C@@H]1CCCN1Cc1sc(NC(=O)c2cnc(N3CCN(CCC(=O)O)CC3)cn2)nc1-c1ccc(C2CC2)c(C(F)(F)F)c1` [Example 63] are >10 µM, 39 -fold shift and 186 -fold shift.
For the molecule `CC[C@@H]1CCCN1Cc1sc(NC(=O)c2cnc(N3CCN(CCC(=O)O)CC3)cn2)nc1-c1cc(C2CC2)cc(C(F)(F)F)c1` [Example 69], the “human c-Mpl-introduced Ba/F3 cell proliferative activity EC30” value in data set [1] is >10 µM. Moreover, in data set [2], the “muscarinic M3 receptor-positive allosteric modulator activity, 1 μM (-fold shift)” value is given as 27 -fold shift and the “muscarinic M3 receptor-positive allosteric modulator activity, 10 μM (-fold shift)” value is recorded as 177 -fold shift.
The corresponding values for `Cc1cc(-c2nc(NC(=O)c3cnc(N4CCN(CC(=O)O)CC4)cn3)sc2CN2CCC[C@H]2C)cc(C(F)(F)F)c1` [Example 71] are >10 µM, 28 -fold shift and 151 -fold shift.
The corresponding values for `C[C@@H]1CN(c2cnc(C(=O)Nc3nc(-c4cc(Cl)cs4)c(CN4CCC[C@H]4C)s3)cn2)CCN1CCC(=O)O` [Example 79] are 1.8 µM, 60 -fold shift and 171 -fold shift.
For the molecule `CC[C@@H]1CCCN1Cc1sc(NC(=O)c2cnc(N3CCN(CCC(=O)O)[C@@H](C)C3)cn2)nc1-c1cc(Cl)cs1` [Example 81], the “human c-Mpl-introduced Ba/F3 cell proliferative activity EC30” value in data set [1] turned out to be 0.5 µM. In data set [2], the “muscarinic M3 receptor-positive allosteric modulator activity, 1 μM (-fold shift)” value is recorded as 89 -fold shift and the “muscarinic M3 receptor-positive allosteric modulator activity, 10 μM (-fold shift)” value was 94 -fold shift.
Take `COc1c(F)cc(-c2nc(NC(=O)c3cnc(N4CCN(CCC(=O)O)C[C@@H]4C)cn3)sc2CN2CCC[C@H]2C)cc1C(F)(F)F` [Example 91]: the “human c-Mpl-introduced Ba/F3 cell proliferative activity EC30” value in data set [1] is >10 µM. In addition, in data set [2], the “muscarinic M3 receptor-positive allosteric modulator activity, 1 μM (-fold shift)” value was 19 -fold shift and the “muscarinic M3 receptor-positive allosteric modulator activity, 10 μM (-fold shift)” value is 139 -fold shift.
Take `COc1c(F)cc(-c2nc(NC(=O)c3cnc(N4CCN(CCC(=O)O)C[C@H]4C)cn3)sc2CN2CCC[C@H]2C)cc1C(F)(F)F` [Example 92]: the “human c-Mpl-introduced Ba/F3 cell proliferative activity EC30” value in data set [1] is >10 µM. In data set [2], the “muscarinic M3 receptor-positive allosteric modulator activity, 1 μM (-fold shift)” value is 30 -fold shift and the “muscarinic M3 receptor-positive allosteric modulator activity, 10 μM (-fold shift)” value is listed as 203 -fold shift.
The corresponding values for `C[C@@H]1CCCN1Cc1sc(NC(=O)c2cnc(N3CCN(CCC(=O)O)CC3)cn2)nc1-c1cc(Br)cs1` [Example 97] are 2.8 µM, 55 -fold shift and 121 -fold shift.
On the same counts, the results for `C[C@@H]1CCCN1Cc1sc(NC(=O)c2cnc(N3CCN(CCC(=O)O)C[C@@H]3C)cn2)nc1-c1cc(C(F)(F)F)cs1` [Example 100] are 3.2 µM, 82 -fold shift and 229 -fold shift.
With `C[C@@H]1CCCN1Cc1sc(NC(=O)c2cnc(N3CCN(CCC(=O)O)C[C@H]3C)cn2)nc1-c1cc(Br)cs1` [Example 101], in data set [1], the “human c-Mpl-introduced Ba/F3 cell proliferative activity EC30” value was 2.7 µM. Also, in data set [2], the “muscarinic M3 receptor-positive allosteric modulator activity, 1 μM (-fold shift)” value was 64 -fold shift and the “muscarinic M3 receptor-positive allosteric modulator activity, 10 μM (-fold shift)” value was 112 -fold shift.
As for `C[C@@H]1CCCN1Cc1sc(NC(=O)c2cnc(N3CCN(CC(=O)O)CC3)cn2)nc1-c1cc(C(F)(F)F)cs1` [Example 103], the “human c-Mpl-introduced Ba/F3 cell proliferative activity EC30” value in data set [1] worked out at 1.7 µM. Further, in data set [2], the “muscarinic M3 receptor-positive allosteric modulator activity, 1 μM (-fold shift)” value was 202 -fold shift and the “muscarinic M3 receptor-positive allosteric modulator activity, 10 μM (-fold shift)” value was 307 -fold shift.
As for `CCN(Cc1sc(NC(=O)c2cnc(N3CCN(CCC(=O)O)CC3)cn2)nc1-c1cc(F)cc(C(F)(F)F)c1)C(C)C` [Example 106], in data set [1], the “human c-Mpl-introduced Ba/F3 cell proliferative activity EC30” value is >10 µM. Also, in data set [2], the “muscarinic M3 receptor-positive allosteric modulator activity, 1 μM (-fold shift)” value was 41 -fold shift and the “muscarinic M3 receptor-positive allosteric modulator activity, 10 μM (-fold shift)” value is recorded as 270 -fold shift.
